These results are taken from patent US20100160286A1, “HETEROARYLCARBAMOYLBENZENE DERIVATIVES FOR THE TREATMENT OF DIABETES” (ASTRAZENECA UK LIMITED AB, priority 2005, published 2010).

The term EC50 denotes the concentration giving half of the maximal effect.

In assay [1] the target is T1, recombinant human pancreatic GLK (Homo sapiens, UniProt P35557).
T1 sequence (P35557 1-465): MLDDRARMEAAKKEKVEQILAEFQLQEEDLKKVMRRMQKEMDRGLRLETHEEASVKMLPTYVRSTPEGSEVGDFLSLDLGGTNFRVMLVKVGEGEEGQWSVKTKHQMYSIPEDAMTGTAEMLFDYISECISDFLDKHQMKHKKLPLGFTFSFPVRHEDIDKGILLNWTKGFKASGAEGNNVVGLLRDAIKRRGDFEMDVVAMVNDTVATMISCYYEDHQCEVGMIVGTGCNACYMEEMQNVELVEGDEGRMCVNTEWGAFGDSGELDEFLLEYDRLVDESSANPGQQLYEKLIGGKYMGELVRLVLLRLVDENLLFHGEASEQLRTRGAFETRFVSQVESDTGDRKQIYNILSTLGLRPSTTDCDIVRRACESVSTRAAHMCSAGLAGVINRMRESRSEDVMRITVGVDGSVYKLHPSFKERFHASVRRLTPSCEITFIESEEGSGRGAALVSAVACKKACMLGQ
Description: biochemical.

Another assay has as its system Zucker obese fa/fa rats. Description: Oral Glucose Tolerance Test. Type of assay: in vivo, rat. The following applies: 10 mg/kg; given orally 120 minutes before oral glucose 2 g/kg; Zucker obese fa/fa rats on high fat diet. As for the experimental part:
(2) Oral Glucose Tolerance Test (OGIT) Oral glucose tolerance tests were done on conscious Zucker obese fa/fa rats (age 12-13 weeks or older) fed a high fat diet (45% kcal fat) for at least two weeks prior to experimentation. The animals were fasted for 2 hours before use for experiments. A test compound or a vehicle was given orally 120 minutes before oral administration of a glucose solution at a dose of 2 g/kg body weight. Blood glucose levels were measured using a Accucheck glucometer from tail bled samples taken at different time points before and after administration of glucose (time course of […]). A time curve of the blood glucose levels was generated and the area-under-the-curve (AUC) for 120 minutes was calculated (the time of glucose administration being time zero). Percent reduction in glucose excursion was determined using the AUC in the vehicle-control group as zero percent reduction.

For the molecule `C#C[C@H](C)Oc1cc(Oc2ccc(C(=O)N3CCC3)cc2)cc(C(=O)Nc2ccn(C)n2)c1` [Example 7, 3-{[4-(Azetidin-1-ylcarbonyl)phenyl]oxy}-5-{[(15)-1-methylprop-2-yn-1-yl]oxy}-N-(1-methyl-1H-pyrazol-3-yl)benzamide], the EC50 in assay [1] amounted to 60 nM.
With `Cn1ccc(NC(=O)c2cc(Oc3ccc(C(=O)N4CCC4)cc3)cc(O[C@H]3CCOC3)c2)n1` [Example 2, 3-{[4-(Azetidin-1-ylcarbonyl)phenyl]oxy}-N-(1-methyl-1H-pyrazol-3-yl)-5-[(3S)-tetrahydrofuran-3-yloxy]benzamide], in the assay with Zucker obese fa/fa rats, the “effect in the Oral Glucose Tolerance Test (percent reduction in glucose excursion, AUC vs vehicle control)” value came to 42%.
